Measurements as given in US20240158392A1 (Janssen Biotech, Inc., priority 2021, published 2024).

Biological target: SIK2 (Homo sapiens, UniProt Q9H0K1)
Experiment: SIK2 Enzymatic Assay High Version 2 (High ATP)
Assay type: biochemical
Conditions: not given
In short: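 At room temperature, enzyme (6 nM, 2× final) was preincubated with compound for 30 min, then 6 mM ATP and 400 μM HDAC5tide (both 2× final) were added for 2 h. ADP formed was measured by ADP-Glo Max (2 h reagent, 1 h detection) using luminescence.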

Chain of SIK2 (Q9H0K1 whole entry, species assumed): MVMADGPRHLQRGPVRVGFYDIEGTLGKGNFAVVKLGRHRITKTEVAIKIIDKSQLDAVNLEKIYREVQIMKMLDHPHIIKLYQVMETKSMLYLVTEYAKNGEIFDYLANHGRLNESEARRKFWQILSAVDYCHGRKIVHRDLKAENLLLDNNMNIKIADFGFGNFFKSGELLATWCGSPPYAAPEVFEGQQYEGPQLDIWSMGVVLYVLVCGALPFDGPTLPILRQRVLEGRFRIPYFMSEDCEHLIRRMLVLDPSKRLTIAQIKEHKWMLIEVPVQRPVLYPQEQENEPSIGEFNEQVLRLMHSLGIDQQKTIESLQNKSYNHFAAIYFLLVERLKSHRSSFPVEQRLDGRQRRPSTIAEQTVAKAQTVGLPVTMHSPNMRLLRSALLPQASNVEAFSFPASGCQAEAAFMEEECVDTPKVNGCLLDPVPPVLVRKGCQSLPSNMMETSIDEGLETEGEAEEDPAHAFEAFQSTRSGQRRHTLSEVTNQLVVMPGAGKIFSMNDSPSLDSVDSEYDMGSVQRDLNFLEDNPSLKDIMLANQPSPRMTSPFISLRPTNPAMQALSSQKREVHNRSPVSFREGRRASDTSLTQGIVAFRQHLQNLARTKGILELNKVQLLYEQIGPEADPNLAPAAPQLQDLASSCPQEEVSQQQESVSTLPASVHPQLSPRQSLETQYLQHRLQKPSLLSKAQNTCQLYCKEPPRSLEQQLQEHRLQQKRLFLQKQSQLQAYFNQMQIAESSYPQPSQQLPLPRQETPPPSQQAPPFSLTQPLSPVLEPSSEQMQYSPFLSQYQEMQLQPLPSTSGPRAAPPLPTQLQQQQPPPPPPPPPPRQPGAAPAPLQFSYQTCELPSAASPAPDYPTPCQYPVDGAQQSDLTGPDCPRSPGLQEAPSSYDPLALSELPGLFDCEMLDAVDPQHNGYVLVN

| SMILES | IC50 |
| --- | --- |
| Cc1cc(-c2ccn3nc(NC(=O)C4CC4)cc3c2)c(O[C@H]2[C@@H]3CN(C)[C@H]2CO3)cn1 [Example 164, N-(5-(2-methyl-5-(((1S,4S,7R)-5-methyl-2-oxa-5-azabicyclo[2.2.1]heptan-7-yl)oxy)pyridin-4-yl)pyrazolo[1,5-a]pyridin-2-yl)cyclopropanecarboxamide] | 0.218 µM |
| Cc1cc(-c2ccn3nc(Nc4cn(C)nc4C(O)C(F)(F)F)cc3c2)c(O[C@H]2C[C@H]3COC[C@@H](C2)N3C)cn1 (stereo partly drawn) [Example 422, 2,2,2-trifluoro-1-[1-methyl-4-[[5-[2-methyl-5-[[(1S,5R,7s)-9-methyl-3-oxa-9-azabicyclo[3.3.1]nonan-7-yl]oxy]-4-pyridyl]pyrazolo[1,5-a]pyridin-2-yl]amino]pyrazol-3-yl]ethanol] | < 0.000847 µM |
| Cc1cc(-c2ccn3nc(Nc4ccn(C)n4)cc3c2)c(OC[C@H]2CNCCO2)cn1 [Example 429, 5-[2-methyl-5-[[(2R)-morpholin-2-yl]methoxy]-4-pyridyl]-N-(1-methylpyrazol-3-yl)pyrazolo[1,5-a]pyridin-2-amine] | 0.0122 µM |
| Cc1cc(-c2ccn3nc(Nc4ccncn4)cc3c2)c(O[C@H]2C[C@H]3COC[C@@H](C2)N3C)cn1 [Example 420, 5-[2-methyl-5-[[(1R,5S,7s)-9-methyl-3-oxa-9-azabicyclo[3.3.1]nonan-7-yl]oxy]-4-pyridyl]-N-pyrimidin-4-yl-pyrazolo[1,5-a]pyridin-2-amine] | 0.00236 µM |
| Cc1cc(-c2ccn3nc(NC(=O)[C@@H]4C[C@H]4C)cc3c2)c(O[C@@H]2[C@@H]3CO[C@H]2CN3)cn1 [Example 463, (1R,2R)-2-methyl-N-[5-[2-methyl-5-[[(1S,4S,7R)-2-oxa-5-azabicyclo[2.2.1]heptan-7-yl]oxy]-4-pyridyl]pyrazolo[1,5-a]pyridin-2-yl]cyclopropanecarboxamide] | 0.0107 µM |
| Cc1cc(-c2ccn3nc(Nc4cc(C(F)(F)F)ccn4)cc3c2)c(O[C@H]2C[C@H]3COC[C@@H](C2)N3C)cn1 [Example 413, 5-[2-methyl-5-[[(1R,5S,7s)-9-methyl-3-oxa-9-azabicyclo[3.3.1]nonan-7-yl]oxy]-4-pyridyl]-N-[4-(trifluoromethyl)-2-pyridyl]pyrazolo[1,5-a]pyridin-2-amine] | < 0.000847 µM |
| Cc1cc(-c2ccn3nc(Nc4cc(C(F)(F)F)nn4C)cc3c2)c(O[C@H]2C[C@H]3COC[C@@H](C2)N3)cn1 [Example 403, 5-(5-(((1R,5S,7s)-3-oxa-9-azabicyclo[3.3.1]nonan-7-yl)oxy)-2-methylpyridin-4-yl)-N-(1-methyl-3-(trifluoromethyl)-1H-pyrazol-5-yl)pyrazolo[1,5-a]pyridin-2-amine] | 0.0143 µM |
| CC(=O)N1[C@@H]2COC[C@H]1C[C@@H](Oc1cnc(C)cc1-c1ccn3nc(NC(=O)C4CC4)cc3c1)C2 [Example 339, N-[5-[5-[[(1S,5R)-9-acetyl-3-oxa-9-azabicyclo[3.3.1]nonan-7-yl]oxy]-2-methyl-4-pyridyl]pyrazolo[1,5-a]pyridin-2-yl]cyclopropanecarboxamide] | 0.00231 µM |
| CC(=O)N1[C@@H]2COC[C@H]1C[C@@H](Oc1cnc(C)cc1-c1ccn3nc(Nc4cc(C(F)(F)F)ccn4)cc3c1)C2 [Example 632, 1-((1R,5S,7s)-7-((6-methyl-4-(2-((4-(trifluoromethyl)pyridin-2-yl)amino)pyrazolo[1,5-a]pyridin-5-yl)pyridin-3-yl)oxy)-3-oxa-9-azabicyclo[3.3.1]nonan-9-yl)ethan-1-one] | 0.00121 µM |
| CNC(=O)c1ccnc(Nc2cc3cc(-c4cc(C)ncc4O[C@H]4C[C@H]5COC[C@@H](C4)N5C(=O)C4CC4)ccn3n2)c1 [Example 634, 2-((5-(5-(((1R,5S,7s)-9-(cyclopropanecarbonyl)-3-oxa-9-azabicyclo[3.3.1]nonan-7-yl)oxy)-2-methylpyridin-4-yl)pyrazolo[1,5-a]pyridin-2-yl)amino)-N-methylisonicotinamide] | 0.363 µM |
| Cc1cc(-c2ccn3nc(Nc4nn(C)cc4F)cc3c2)c(O[C@H]2C[C@H]3COC[C@@H](C2)N3C)cn1 [Example 118, N-(4-fluoro-1-methyl-1H-pyrazol-3-yl)-5-(2-methyl-5-(((1R,5S,7s)-9-methyl-3-oxa-9-azabicyclo[3.3.1]nonan-7-yl)oxy)pyridin-4-yl)pyrazolo[1,5-a]pyridin-2-amine] | < 0.000847 µM |
| CNC(=O)c1c(C)cc(Nc2cc3cc(-c4cc(C)ncc4O[C@H]4C[C@H]5COC[C@@H](C4)N5C(C)=O)ccn3n2)nc1C [Example 358, 6-[[5-[5-[[(1R,5S,7s)-9-acetyl-3-oxa-9-azabicyclo[3.3.1]nonan-7-yl]oxy]-2-methyl-4-pyridyl]pyrazolo[1,5-a]pyridin-2-yl]amino]-N,2,4-trimethyl-pyridine-3-carboxamide] | 0.00783 µM |

Same assay, conditions: enzyme 6 nM, 6 mM ATP and 400 μM HDAC5tide (each 2× final concentration); 30 minutes pre-incubation, 2 hours; ADP-Glo Max luminescence; read-out: SIK2 high ATP IC50 (μM) (Test Example 2)

| IC50 | SMILES |
| --- | --- |
| 0.00228 µM | Cn1cc(Nc2cc3cc(-c4cc(OC(F)F)ncc4OCC(C)(C)C#N)ccn3n2)cn1 [Example 692, 3-[[6-(difluoromethoxy)-4-[2-[(1-methylpyrazol-4-yl)amino]pyrazolo[1,5-a]pyridin-5-yl]-3-pyridyl]oxy]-2,2-dimethyl-propanenitrile] |
| 0.557 µM | Cc1cc(-c2ccn3nc(Nc4nccc(C)c4F)cc3c2)c(OCC(C)(C)O)cn1 [Example 652, 1-[[4-[2-[(3-fluoro-4-methyl-2-pyridyl)amino]pyrazolo[1,5-a]pyridin-5-yl]-6-methyl-3-pyridyl]oxy]-2-methyl-propan-2-ol] |
| 0.0376 µM | Cc1cc(-c2ccn3nc(Nc4cc(C)nc(C)n4)cc3c2)c(O[C@H]2CC[C@H](C(N)=O)CC2)cn1 [Example 343, 4-[[4-[2-[(2,6-dimethylpyrimidin-4-yl)amino]pyrazolo[1,5-a]pyridin-5-yl]-6-methyl-3-pyridyl]oxy]cyclohexanecarboxamide] |
| 0.00876 µM | Cc1cc(-c2ccn3nc(Nc4cc(C)nc(C)n4)cc3c2)c(OCc2cccc(O)c2)cn1 [Example 272, 3-[[4-[2-[(2,6-dimethylpyrimidin-4-yl)amino]pyrazolo[1,5-a]pyridin-5-yl]-6-methyl-3-pyridyl]oxymethyl]phenol] |
| 0.0028 µM | Cc1cc(-c2ccn3nc(Nc4cc(C)nc(C)n4)cc3c2)c(OC[C@](C)(N)C(F)(F)F)cn1 (single isomer, unassigned) [Example 304, (*S)-5-[5-(2-amino-3,3,3-trifluoro-2-methyl-propoxy)-2-methyl-4-pyridyl]-N-(2,6-dimethylpyrimidin-4-yl)pyrazolo[1,5-a]pyridin-2-amine] |
| 0.0237 µM | Cc1cc(-c2ccn3nc(NC(=O)C4CC4)cc3c2)c(OC[C@]23C[C@H](CO2)N(C)C3)cn1 [Example 249, N-[5-[2-methyl-5-[[(1R,4R)-2-methyl-5-oxa-2-azabicyclo[2.2.1]heptan-4-yl]methoxy]-4-pyridyl]pyrazolo[1,5-a]pyridin-2-yl]cyclopropanecarboxamide] |
| 0.0585 µM | Cc1cc(-c2ccn3nc(Nc4cc(C)nc(C)n4)cc3c2)c(OC[C@H]2COC(C)(C)C2)cn1 (single isomer, unassigned) [Example 540, (*S)—N-(2,6-dimethylpyrimidin-4-yl)-5-[5-[(5,5-dimethyltetrahydrofuran-3-yl)methoxy]-2-methyl-4-pyridyl]pyrazolo[1,5-a]pyridin-2-amine] |
| 0.0298 µM | Cc1cc(-c2ccn3nc(NC(=O)C4CC4)cc3c2)c(OCC2CN(CCF)C2)cn1 [Example 457, N-[5-[5-[[1-(2-fluoroethyl)azetidin-3-yl]methoxy]-2-methyl-4-pyridyl]pyrazolo[1,5-a]pyridin-2-yl]cyclopropanecarboxamide] |
| 0.0282 µM | Cc1cc(-c2ccn3nc(NC(=O)C4CC4)cc3c2)c(OC[C@@]23C[C@@H](CO2)N(C)C3)cn1 [Example 237, N-[5-[2-methyl-5-[[(1S,4S)-2-methyl-5-oxa-2-azabicyclo[2.2.1]heptan-4-yl]methoxy]-4-pyridyl]pyrazolo[1,5-a]pyridin-2-yl]cyclopropanecarboxamide] |
| 0.116 µM | O=C(Nc1cc2cc(-c3cc(C(F)(F)F)ncc3OC[C@@H]3CNCCO3)ccn2n1)C1CC1 [Example 601, N-[5-[5-[[(2S)-morpholin-2-yl]methoxy]-2-(trifluoromethyl)-4-pyridyl]pyrazolo[1,5-a]pyridin-2-yl]cyclopropanecarboxamide] |
| 0.0181 µM | COCc1nc(C)cc(Nc2cc3cc(-c4cc(C)ncc4OCC(C)(C)O)ccn3n2)n1 [Example 205, 1-[[4-[2-[[2-(methoxymethyl)-6-methyl-pyrimidin-4-yl]amino]pyrazolo[1,5-a]pyridin-5-yl]-6-methyl-3-pyridyl]oxy]-2-methyl-propan-2-ol] |
| 0.00809 µM | Cc1cc(-c2ccn3nc(Nc4cnc5cc[nH]c5n4)cc3c2)c(OCC(C)(C)O)cn1 [Example 291, 2-methyl-1-[[6-methyl-4-[2-(5H-pyrrolo[2,3-b]pyrazin-3-ylamino)pyrazolo[1,5-a]pyridin-5-yl]-3-pyridyl]oxy]propan-2-ol] |
| 0.0118 µM | CC(C)(C#N)COc1cnc(OC(F)F)cc1-c1ccn2nc(Nc3cc4c(cn3)CNCC4)cc2c1 [Example 716, 3-[[6-(difluoromethoxy)-4-[2-(5,6,7,8-tetrahydro-2,7-naphthyridin-3-ylamino)pyrazolo[1,5-a]pyridin-5-yl]-3-pyridyl]oxy]-2,2-dimethyl-propanenitrile] |
| 0.00555 µM | CO[C@H]1CNC[C@@H]1COc1cnc(C)cc1-c1ccn2nc(NC(=O)C3CC3)cc2c1 (relative stereo) [Example 458, Trans-*R, *R—N-[5-[5-[(4-methoxypyrrolidin-3-yl)methoxy]-2-methyl-4-pyridyl]pyrazolo[1,5-a]pyridin-2-yl]cyclopropanecarboxamide] |
| 0.016 µM | Cc1cc(-c2ccn3nc(Nc4ccc5cc[nH]c5n4)cc3c2)c(OCC(C)(C)O)cn1 [Example 240, 2-methyl-1-[[6-methyl-4-[2-(1H-pyrrolo[2,3-b]pyridin-6-ylamino)pyrazolo[1,5-a]pyridin-5-yl]-3-pyridyl]oxy]propan-2-ol] |
